In patent publication US8158621B2, “Methods of treating or preventing autoimmune diseases with 2,4-pyrimidinediamine compounds” (Rigel Pharmaceuticals, Inc., priority 2002, dated 2012):
Values joined by “and” are separate entries in the source; they are usually repeats but may differ in a detail not shown here. Equal entries are not always repeated. Where two headings read alike, the source gives them in different places.

How the values were obtained:
[1] = system: FcγRI-mediated degranulation; assay: FcγRI-mediated degranulation (anti-human IgG Fab activation); assay type: cell-based; conditions: cells not primed with IgE, activated with rabbit anti-human IgG Fab fragment
[2] = Mouse Reverse Passive Arthus reaction (RPA reaction); assay type: in vivo, C57BL/6 mice; conditions: oral
Summary of the method: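 C57BL/6 mice dosed with compound before challenge, pretreatment time set by each compound's PK; rabbit anti-OVA IgG (50 μg/mouse) given intradermally, then ovalbumin 20 mg/kg i.v. with 1% Evans blue. Dorsal skin edema and hemorrhage read by dye extravasation at 4 h; purified polyclonal rabbit IgG as control.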

Primary T-cells [3] = assay: Primary T-cell cytokine production (αCD3/αCD28): GMSCF; assay type: cell-based, human; conditions: read-out: 1° T-Cell GMSCF IC50
Protocol: (§1) 2E8-4E8 PBMC or proliferating T cells grown in rIL-2 from healthy human donors were suspended in PBS were spun down (1500 rpm, 8-10 minutes) and resuspended in 100 ml RPMI Complete media (1% Pen-Strep, 1% L-Glutamine, 10 mM HEPES). The cells were plated in T175 flasks (37° C., 5% CO2) and monocytes were allowed to adhere for 2-3 hours. After monocyte attachment, non-adherent cells were harvested, counted by hemocytometer, washed several times with PBS then resuspended in Yssels Complete Media (Modified IMDM Media with 1% Human AB Serum, 1% Pen-Strep, 1% L-Glutamine, 10 mM HEPES) at […]. 90 uL of the cell dilution were then added to compounds diluted to 2× in Yssel's media and incubated for 30 minutes at 37° C. (5% CO2). After this preincubation step the compound/cell mixture was transferred to stimulation plates, as described below.
(§2) Stimulation plates were prepared by coating 96 well plates with 5 μg/ml αCD3 (BD PharMingen, Catalog #555336)+10 μg/ml αCD28 (Beckman Coulter, Catalog #IM1376) in PBS (no Ca^2+/Mg^2+) at 37° C. (5% CO2) for at 3-5 hours. After incubation with the stimulation antibodies, the cocktail was removed and the plates washed 3 times with PBS prior to addition of the primary T cell/compound mixture.
(§3) The compound/cell mixture was transferred to the stimulation plates and incubated for 18 hr at 37° C. (5% CO2). After the cell stimulation, ˜150 μl supernatant were transferred from each well into 96-well filter plates (Coming PVDF Filter Plates) spun down (2000 rpm, 2-3 minutes) and either used immediately for ELISA or LUMINEX measurements or frozen down at −80° C. for future use.
(§4) Luminex immunoassay multiplexing for TNF, IL-2, GMSCF, IL-4 and IFNg was performed essentially as described by the manufacturer (Upstate Biotechnology). Essentially 50 uL of sample was diluted into 50 uL assay diluent and 50 uL incubation buffer, then incubated with 100 uL of the diluted detection antibody for 1 hr at RT in the dark. The filter plate was washed 2× in Wash Buffer, then incubated with 100 uL of the diluted secondary reagent (SAV-RPE) for 30 min at RT in the dark. Finally the plates were washed 3 times and bead identification and RPE fluorescent measured by the Luminex instrument.
(§5) Varied concentrations of compound were compared to solvent only to determine the inhibition of T-cell activation IC50 of each compound.

Primary T-cells [4] = assay: Primary T-cell cytokine production (αCD3/αCD28): IL-4; assay type: cell-based, human; conditions: read-out: 1° T-Cell IL4 IC50
Protocol: as §1, §2, §3, §4, §5

Primary T-cells [5] = assay: Primary T-cell cytokine production (αCD3/αCD28): IFNg; assay type: cell-based, human; conditions: read-out: 1° T-Cell IFNg IC50
Protocol: as §1, §2, §3, §4, §5

[6] = system: basophil cells (human peripheral blood); assay: Basophil ionomycin activation: histamine release assay; assay type: cell-based
Summary of the method: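 Dextran-sedimented leukocytes from peripheral blood of dust-mite-allergic human donors were incubated with compound (8 concentrations, 0.5% DMSO, triplicate) and then stimulated with 2 μM ionomycin stock (20 μl added) for 30 min at 37° C. Histamine released into the supernatant was measured by ELISA.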

Syk kinase = target: T1, Syk kinase (Homo sapiens, UniProt P43405); assay: Syk kinase biochemical fluorescence polarization assay; conditions: isolated Syk kinase, fluorescence polarization, 4 uM ATP
T1 construct: purchased Upstate, Lake Placid NY

[7] = system: cultured human mast cells (CHMC); assay: CHMC low cell density IgE activation: tryptase assay; assay type: cell-based; conditions: Low Density CHMC, anti-IgE activation, tryptase release; read-out: CHMC anti-IgE Tryptase IC50
Summary of the method: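 Low-density CHMC assay: donor-adjusted 1000-1500 cells/well, MT buffer, 1 hr 37° C preincubation; anti-IgE stimulus 30 min 37° C versus MT-only controls; supernatant tryptase by substrate, 30 min RT.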

[8] = system: cultured human mast cells (CHMC); assay: CHMC low cell density ionomycin activation: tryptase assay; assay type: cell-based; conditions: Low Density CHMC, ionomycin activation, tryptase release; read-out: CHMC Ionomycin Tryptase IC50
[9] = 100 mg/kg, pretreatment time 1 hrs
[10] = basophils, ionomycin activation, histamine release, read-out: Basophils Ionomycin Histamine IC50
[11] = 50 mg/kg, pretreatment time 1 hrs
[12] = 200 mg/kg, 60 minutes prior to challenge
[13] = 200 mg/kg, pretreatment time 1 hrs

## CNC(=O)COc1cccc(Nc2ncc(F)c(Nc3ccc(OC(F)(F)F)c(Cl)c3)n2)c1 [Compound R920410]
[1]
  inhibition of FcγRI-mediated degranulation: inhibit FcγRI-mediated degranulation
[2]; [9]
  % inhibition to vehicle control Edema Size ± SEM: 42.6 ± 15.1%
Primary T-cells [3]
  IC50: 3200 nM
Primary T-cells [4]
  IC50: 546 nM
Primary T-cells [5]
  IC50: 4310 nM

## Oc1cccc(Nc2ncc(F)c(Nc3cccc(O)c3)n2)c1 [Compound R921218]
[6]; [10]
  IC50: > 10000 nM
[1]
  inhibition of FcγRI-mediated degranulation: inhibit FcγRI-mediated degranulation

## CNC(=O)COc1cccc(Nc2ncc(F)c(Nc3ccc4c(c3)NCCO4)n2)c1 [Compound R921219]
[6]; [10]
  IC50: > 10000 nM
Syk kinase
  IC50: 41 nM

## Nc1cccc(Nc2ncc(F)c(Nc3cccc(N)c3)n2)c1 [Compound R921302]
[6]; read-out: Basophils Ionomycin Histamine
  IC50: > 10000 nM
[1]
  inhibition of FcγRI-mediated degranulation: inhibit FcγRI-mediated degranulation
[2]; 50 mg/kg, 60 minutes prior to Ab/Ag challenge
  inhibition of edema formation: 49.9%
[2]; [11]
  % inhibition to vehicle control Edema Size ± SEM: 50.0 ± 6.4% and 49.9%
[2]; 100 mg/kg, 30 minutes post-challenge
  inhibition of edema (therapeutic): 77.5%
[2]; 100 mg/kg, 60 minutes prior to Ab/Ag challenge
  inhibition of edema formation: 93.2%
[2]; 100 mg/kg, pretreatment time 0.5 hrs
  % inhibition to vehicle control Edema Size ± SEM: 89.44 ± 4.8%
[2]; [9]
  % inhibition to vehicle control Edema Size ± SEM: 82.1 ± 10.9% and 92.3 ± 4.2% and 93.2%
[2]; [12]
  inhibition of edema formation: 99.1%
[2]; [13]
  % inhibition to vehicle control Edema Size ± SEM: 99.1 ± 0.9% and 99.1%
Primary T-cells [3]
  IC50: 3210 nM
Primary T-cells [4]
  IC50: 245 nM
Primary T-cells [5]
  IC50: 3900 nM

## CNC(=O)COc1cccc(Nc2ncc(F)c(Nc3ccc4c(c3)NC(=O)C(F)(F)O4)n2)c1 [Compound R921303]
[1]
  inhibition of FcγRI-mediated degranulation: inhibit FcγRI-mediated degranulation
[2]; 50 mg/kg
  dose-dependent inhibition of edema formation: 65.4%
[2]; [11]
  % inhibition to vehicle control Edema Size ± SEM: 64.1 ± 13.3% and 65.4%
[2]; 100 mg/kg
  dose-dependent inhibition of edema formation: 81.2%
[2]; [9]
  % inhibition to vehicle control Edema Size ± SEM: 80.5 ± 9.8% and 81.2%
[2]; 200 mg/kg
  dose-dependent inhibition of edema formation: 100%
[2]; [12]
  inhibition of edema formation: 100%
[2]; 200 mg/kg, pretreatment time 0.5 hrs
  % inhibition to vehicle control Edema Size ± SEM: 100 ± 0%
[2]; 200 mg/kg, pretreatment time 0.5 hrs + 4 hours
  Plasma Concentration ± SEM (ng/ml) Exposure = Pretreatment Time + 4 hours: 3703 ± 785 ng/mL
[2]; 200 mg/kg, pretreatment time 30 minutes
  inhibition of edema formation: 100%
[2]; [13]
  % inhibition to vehicle control Edema Size ± SEM: 100 ± 0% and 100%
[2]; 200 mg/kg, pretreatment time 2 hrs
  % inhibition to vehicle control Edema Size ± SEM: 93.3 ± 4.4%
[2]; 200 mg/kg, pretreatment time 2 hrs + 4 hours
  Plasma Concentration ± SEM (ng/ml) Exposure = Pretreatment Time + 4 hours: 2678 ± 496 ng/mL
[2]; 200 mg/kg, pretreatment time 120 minutes
  inhibition of edema formation: 93.6%
Primary T-cells [3]
  IC50: 1180 nM
Primary T-cells [4]
  IC50: 366 nM
Primary T-cells [5]
  IC50: 1280 nM

## CNC(=O)COc1cccc(Nc2ncc(F)c(Nc3ccc4c(n3)NC(=O)CO4)n2)c1 [Compound R921304]
Primary T-cells [3]
  IC50: 1570 nM
Primary T-cells [4]
  IC50: 366 nM
Primary T-cells [5]
  IC50: 2890 nM

## Fc1cnc(Nc2ccc3c(c2)OCCO3)nc1Nc1ccc2c(c1)OCCO2 [Compound R926109]
[7]
  IC50: 538 nM
[8]
  IC50: 5500 nM
[6]; [10]
  IC50: > 10000 nM

## COc1ccc(Nc2ncc(F)c(Nc3ccc(OC)c(OC)c3)n2)cc1OC [Compound R926110]
[7]
  IC50: 1070 nM
[8]
  IC50: > 10000 nM
[6]; [10]
  IC50: > 10000 nM
